Measurements published in PubChem BioAssay AID1963961 (Molecular Pharmacology Branch, DTP, NCI, 2024).

Tested on: K98450-129-R-PDC multicell spheroids, viability
Experiment: Anticancer human tumor K98450-129-R-PDC patient-derived colon adenocarcinoma cell line growth inhibition [PI3K]
Details: for IC50: curve of first compound; for viability, T/C: stronger effect = lower value
In short: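 Combination activity was assessed by viability in multicellular tumor spheroids carrying HUVEC and MSC components. Agents were tested with PI3K inhibitors from a Cmax-based top dose (or 10 microM) downward in half-log increments.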

[1] = second compound 0.0316 µM, first compound 0.0316 µM
[2] = second compound 0.0316 µM, first compound 0.1 µM
[3] = second compound 0.0316 µM, first compound 0.316 µM
[4] = second compound 0.0316 µM, first compound 1 µM
[5] = second compound 0.0316 µM, first compound 3.16 µM
[6] = second compound 0.0316 µM, first compound 10 µM
[7] = second compound 0.1 µM, first compound 0.0316 µM
[8] = second compound 0.1 µM, first compound 0.1 µM
[9] = second compound 0.1 µM, first compound 0.316 µM
[10] = second compound 0.1 µM, first compound 1 µM
[11] = second compound 0.1 µM, first compound 3.16 µM
[12] = second compound 0.1 µM, first compound 10 µM
[13] = second compound 0.316 µM, first compound 0.0316 µM
[14] = second compound 0.316 µM, first compound 0.1 µM
[15] = second compound 0.316 µM, first compound 0.316 µM
[16] = second compound 0.316 µM, first compound 1 µM
[17] = second compound 0.316 µM, first compound 3.16 µM
[18] = second compound 0.316 µM, first compound 10 µM
[19] = second compound 1 µM, first compound 0.0316 µM
[20] = second compound 1 µM, first compound 0.1 µM
[21] = second compound 1 µM, first compound 0.316 µM
[22] = second compound 1 µM, first compound 1 µM
[23] = second compound 1 µM, first compound 3.16 µM
[24] = second compound 1 µM, first compound 10 µM
[25] = second compound 3.16 µM, first compound 0.0316 µM
[26] = second compound 3.16 µM, first compound 0.1 µM
[27] = second compound 3.16 µM, first compound 0.316 µM
[28] = second compound 3.16 µM, first compound 1 µM
[29] = second compound 3.16 µM, first compound 3.16 µM
[30] = second compound 3.16 µM, first compound 10 µM
[31] = second compound 10 µM, first compound 0.0316 µM
[32] = second compound 10 µM, first compound 0.1 µM
[33] = second compound 10 µM, first compound 0.316 µM
[34] = second compound 10 µM, first compound 1 µM
[35] = second compound 10 µM, first compound 3.16 µM
[36] = second compound 10 µM, first compound 10 µM
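Also: spheroids exposed to agents for seven days before read-out.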

## C=CC(=O)N1CCN(c2nc(=O)n(-c3c(C)ccnc3C(C)C)c3nc(-c4c(O)cccc4F)c(F)cc23)C(C)C1 (centres undefined) + Cc1nc(NC(=O)N2CCCC2C(N)=O)sc1-c1ccnc(C(C)(C)C(F)(F)F)c1
Second compound 0.0316 µM
  IC50: 4.01 µM
Second compound 0.1 µM
  IC50: 3.48 µM
Second compound 0.316 µM
  IC50: 2.63 µM
Second compound 1 µM
  IC50: 1.91 µM
Second compound 3.16 µM
  IC50: 1.33 µM
Second compound 10 µM
  IC50: 0.502 µM
[1]
  viability, T/C: 111%
[2]
  viability, T/C: 102%
[3]
  viability, T/C: 97.3%
[4]
  viability, T/C: 84.5%
[5]
  viability, T/C: 52.8%
[6]
  viability, T/C: 33.1%
[7]
  viability, T/C: 102%
[8]
  viability, T/C: 94%
[9]
  viability, T/C: 96.8%
[10]
  viability, T/C: 77.7%
[11]
  viability, T/C: 52.4%
[12]
  viability, T/C: 28.2%
[13]
  viability, T/C: 102%
[14]
  viability, T/C: 106%
[15]
  viability, T/C: 93.6%
[16]
  viability, T/C: 78.7%
[17]
  viability, T/C: 44%
[18]
  viability, T/C: 26.8%
[19]
  viability, T/C: 90.5%
[20]
  viability, T/C: 92.7%
[21]
  viability, T/C: 84.4%
[22]
  viability, T/C: 69%
[23]
  viability, T/C: 35.4%
[24]
  viability, T/C: 22.7%
[25]
  viability, T/C: 83.7%
[26]
  viability, T/C: 85%
[27]
  viability, T/C: 86.5%
[28]
  viability, T/C: 55.7%
[29]
  viability, T/C: 29.1%
[30]
  viability, T/C: 17.6%
[31]
  viability, T/C: 73.9%
[32]
  viability, T/C: 79.3%
[33]
  viability, T/C: 61.6%
[34]
  viability, T/C: 31.1%
[35]
  viability, T/C: 12.9%
[36]
  viability, T/C: 8.56%

## CC(Cn1ccc(-c2ccc(C#N)c(Cl)c2)n1)NC(=O)c1cc(C(C)O)[nH]n1 (centres undefined) + Cc1nc(NC(=O)N2CCCC2C(N)=O)sc1-c1ccnc(C(C)(C)C(F)(F)F)c1
Second compound 0.0316 µM
  IC50: > 10 µM
Second compound 0.1 µM
  IC50: > 10 µM
Second compound 0.316 µM
  IC50: > 10 µM
Second compound 1 µM
  IC50: > 10 µM
Second compound 3.16 µM
  IC50: > 10 µM
Second compound 10 µM
  IC50: > 10 µM
[1]
  viability, T/C: 103%
[2]
  viability, T/C: 98.6%
[3]
  viability, T/C: 107%
[4]
  viability, T/C: 105%
[5]
  viability, T/C: 99.8%
[6]
  viability, T/C: 103%
[7]
  viability, T/C: 108%
[8]
  viability, T/C: 99.3%
[9]
  viability, T/C: 104%
[10]
  viability, T/C: 94.2%
[11]
  viability, T/C: 99.5%
[12]
  viability, T/C: 103%
[13]
  viability, T/C: 104%
[14]
  viability, T/C: 94.4%
[15]
  viability, T/C: 99.3%
[16]
  viability, T/C: 98.6%
[17]
  viability, T/C: 102%
[18]
  viability, T/C: 103%
[19]
  viability, T/C: 86.4%
[20]
  viability, T/C: 101%
[21]
  viability, T/C: 98.3%
[22]
  viability, T/C: 88.8%
[23]
  viability, T/C: 98.2%
[24]
  viability, T/C: 84.8%
[25]
  viability, T/C: 85.1%
[26]
  viability, T/C: 81.4%
[27]
  viability, T/C: 86.8%
[28]
  viability, T/C: 84%
[29]
  viability, T/C: 94%
[30]
  viability, T/C: 85.8%
[31]
  viability, T/C: 75.6%
[32]
  viability, T/C: 72.1%
[33]
  viability, T/C: 80.3%
[34]
  viability, T/C: 81.1%
[35]
  viability, T/C: 80.8%
[36]
  viability, T/C: 74.3%
